According to US6566352B1, “1 α-hydroxy-2-methylene-19-nor-pregnacalciferol and its uses” (Wisconsin Alumni Research Foudation, priority 2002, dated 2003):
pEC50, pKi: −log10 of the molar value. “Also recorded” adds a separate entry of the source.

Experiments:
[1] = target: T1, full-length recombinant rat vitamin D receptor (Rattus norvegicus, UniProt P13053); experiment: competition with [3H]-1,25(OH)2D3 for binding to vitamin D receptor; conditions: full-length recombinant rat vitamin D receptor (FIG. 2)
T1 construct: the full-length recombinant rat vitamin D receptor
T1 sequence (P13053 1-423): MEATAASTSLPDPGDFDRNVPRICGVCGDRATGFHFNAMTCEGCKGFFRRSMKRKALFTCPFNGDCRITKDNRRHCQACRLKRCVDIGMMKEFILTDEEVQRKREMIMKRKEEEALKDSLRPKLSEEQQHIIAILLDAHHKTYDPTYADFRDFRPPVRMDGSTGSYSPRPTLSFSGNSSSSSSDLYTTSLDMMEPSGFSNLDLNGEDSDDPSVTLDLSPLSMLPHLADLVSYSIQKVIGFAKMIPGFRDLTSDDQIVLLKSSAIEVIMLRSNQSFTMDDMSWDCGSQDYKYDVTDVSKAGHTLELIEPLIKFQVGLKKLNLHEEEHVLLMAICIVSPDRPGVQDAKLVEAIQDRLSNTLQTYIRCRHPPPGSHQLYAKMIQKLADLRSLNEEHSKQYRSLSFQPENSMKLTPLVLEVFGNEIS

[2] = serum calcium response in vitamin D-sufficient normal female rats on normal calcium diet; assay type: in vivo, rat; conditions: for serum calcium (hypercalcemia): 5000 pmol/day for 7 days, oral or intraperitoneal, normal female rats, 4 hours after last dose
Procedure: Serum calcium response in vitamin D-sufficient animals on a normal calcium diet. […] The doses were administered to two separate groups of animals by either the oral or intraperitoneal route, and serum calcium levels were assessed 4 hours after the last dose.

[3] = test system: intestinal calcium transport; experiment: intestinal calcium transport, everted gut sac method, vitamin D-deficient rats; assay type: in vivo, rat; conditions: for intestinal calcium transport activity: vitamin D-deficient rats, in words, no dose named
Procedure: Intestinal calcium transport was evaluated in the same groups of animals using the everted gut sac method (FIG. 5).

HL-60 cells = experiment: HL-60 cell differentiation into monocytes; assay type: cell-based; conditions: for pEC50: HL60 cells (FIG. 3)
Procedure: The differentiation of HL-60 promyelocytic into monocytes was determined as described by Ostrem et al (J. Biol. Chem. 262, 14164-14171, 1987).
VDR binding and HL60 cell differentiation.

[4] = test system: calcium mobilization from bone; experiment: bone calcium mobilization in vitamin D-deficient rats on low calcium diet; assay type: in vivo, rat; conditions: for bone calcium mobilization activity: in words, no dose named
Procedure: Calcium mobilization from bone and intestinal calcium absorption in vitamin D-deficient animals. Using vitamin D-deficient rats on a low calcium diet (0.02%), the activities of these compounds in intestine and bone were tested.

[5] = test system: porcine intestinal vitamin D receptor; experiment: binding to porcine intestinal vitamin D receptor; conditions: compared to standard 1,25-(OH)2D3 (FIG. 2)
Text: The battery of in vitro and in vivo assays described in […] et al (J. Med.

Row | SMILES | pKi [1] | calcemic activity from serum calcium after chronic doses ([2]; rats, chronic doses (FIG. 6), in words) | pEC50 (HL-60 cells; Homo sapiens, HL-60) | binding to the porcine receptor as compared to 1,25-(OH)2D3 [5] | serum calcium (hypercalcemia) [2] | intestinal calcium transport activity [3] | pEC50 (HL-60 cells) | mobilization of bone calcium ([4]; 260 pmol/day for 7 days) | intestinal calcium transport ([3]; 260 pmol/day) | serum calcium levels (bone calcium mobilization) ([4]; low calcium diet (0.02%), all dosages) | intestinal calcium transport ([3]; 1300 pmol/day (5-fold higher)) | intestinal calcium transport ([3]; doses higher than 1300 pmol/day) | mobilization of bone calcium ([4]; 1300 pmol/day (5-fold)) | bone calcium mobilization activity ([4]; low calcium diet (0.02%)) | potency on HL-60 differentiation compared to 1,25(OH)2D3 (HL-60 cells; in words, FIG. 3)
1 | C[C@H](CCCC(C)(C)O)[C@H]1CC[C@H]2/C(=C/C=C3C[C@@H](O)C[C@H](O)C3)CCC[C@]12C [1,25(OH)2 19-nor-D3, 1α,25-dihydroxy-19-nor-vitamin D3, reference compound] | 9.70 | – | – | – | produced frank hypercalcemia | devoid of intestinal calcium transport activity | 8.40 | did not result in mobilization of bone calcium | – | – | – | – | – | – | –
2 | C=C1/C(=C\C=C2/CCC[C@]3(C)[C@@H]([C@H](C)CCCC(C)(C)O)CC[C@@H]23)C[C@@H](O)C[C@@H]1O [1,25(OH)2D3, 1α,25-dihydroxyvitamin D3, reference compound] | – | – | – | – | – | – | 8.30 | – | promotes a significant increase | increased serum calcium levels at all dosages | – | – | – | – | –
3 | C=C1C(O)CC(=CC=C2CCCC3(C)C2CCC3C(C)C)CC1O (stereo not drawn) [2-MP, 1α-hydroxy-2-methylene-19-nor-homopregnacalciferol] | 9.52 | – | – | – | – | – | 8.22 | did not result in mobilization of bone calcium | calcium transport activity equivalent to 1,25(OH)2D3 | – | calcium transport activity equivalent to 1,25(OH)2D3 | decreased this activity | without effect | little, if any, activity | –

Now from value to compound, other results behind:

Row | pKi [1] | calcemic activity from serum calcium after chronic doses ([2]; rats, chronic doses (FIG. 6), in words) | pEC50 (HL-60 cells; Homo sapiens, HL-60) | binding to the porcine receptor as compared to 1,25-(OH)2D3 [5] | SMILES | serum calcium (hypercalcemia) [2] | intestinal calcium transport activity [3] | pEC50 (HL-60 cells) | mobilization of bone calcium ([4]; 260 pmol/day for 7 days) | intestinal calcium transport ([3]; 260 pmol/day) | serum calcium levels (bone calcium mobilization) ([4]; low calcium diet (0.02%), all dosages) | intestinal calcium transport ([3]; 1300 pmol/day (5-fold higher)) | intestinal calcium transport ([3]; doses higher than 1300 pmol/day) | mobilization of bone calcium ([4]; 1300 pmol/day (5-fold)) | bone calcium mobilization activity ([4]; low calcium diet (0.02%)) | potency on HL-60 differentiation compared to 1,25(OH)2D3 (HL-60 cells; in words, FIG. 3)
4 | 9.22 | – | – | – | C=C1[C@H](O)CC(=C/C=C2\CCC[C@]3(C)[C@@H]([C@@H](C)CC)CC[C@@H]23)C[C@H]1O [2-MbisP, (20S)-1α-hydroxy-2-methylene-19-nor-bishomopregnacalciferol] | – | – | 8.15 | did not result in mobilization of bone calcium | do not promote intestinal calcium transport | – | do not promote intestinal calcium transport | – | without effect | little, if any, activity | –
5 | 9.52 | very little calcemic activity | 7.77 | bound equally well | C=C1[C@H](O)CC(=C/C=C2\CCC[C@]3(C)C(CC)CCC23)C[C@H]1O (stereo partly drawn) [2-Mpregna, 1α-hydroxy-2-methylene-19-nor-pregnacalciferol] | no increase in serum calcium | very little activity | – | did not result in mobilization of bone calcium | do not promote intestinal calcium transport | – | do not promote intestinal calcium transport | – | without effect | very little bone calcium mobilization activity; also recorded: little, if any, activity | almost as potent as 1,25(OH)2D3
